PubChem BioAssay AID248 (DTP/NCI, 2004)
Several values for one entry are separate records, joined by “and”; a condition that tells them apart may be missing. Equal entries are not always repeated. Toxic doses and inconclusive results are not listed. Cut-off read from the data, not from the text of the source: active = T/C of 150% or more; inactive = T/C below 125%.

System: L1210 leukemia ip in BDF1 mice, survival T/C
Assay: NCI In Vivo Anticancer Drug Screen. Data for tumor model L1210 Leukemia (intraperitoneal) in B6D2F1 (BDF1) mice
Conditions: endpoint: mean survival time, higher = longer survival
Summary of the method: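 Transplanted-tumor mice were given test agent; controls received vehicle only. Survival readings from the two groups were divided (treated over control).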

[1] = dose: 50.0 mg/kg/injection, schedule: Q01DX001 (ip), vehicle: saline
[2] = dose: 100.0 mg/kg/injection, schedule: Q01DX001 (ip), vehicle: saline
[3] = dose: 200.0 mg/kg/injection, schedule: Q01DX001 (ip), vehicle: saline
[4] = dose: 100.0 mg/kg/injection, schedule: Q04DX002 (ip), vehicle: Klucel (hydroxypropylcellulose) (HPC)
[5] = dose: 200.0 mg/kg/injection, schedule: Q04DX002 (ip), vehicle: Klucel (hydroxypropylcellulose) (HPC)

Measured: T/C

O=S(=O)(O)c1ccc(-c2nc3ccccc3[nH]2)cc1
inactive: [1] 104 % of control | [2] 98 % of control | dose: 100.0 mg/kg/injection, schedule: Q01DX009 (ip), vehicle: Klucel (hydroxypropylcellulose) (HPC) 101 % of control | dose: 100.0 mg/kg/injection, schedule: Q04DX003 (ip), vehicle: Klucel (hydroxypropylcellulose) (HPC) 95 % of control | [3] 93 % of control | dose: 200.0 mg/kg/injection, schedule: Q01DX009 (ip), vehicle: Klucel (hydroxypropylcellulose) (HPC) 96 % of control | dose: 200.0 mg/kg/injection, schedule: Q04DX003 (ip), vehicle: Klucel (hydroxypropylcellulose) (HPC) 103 % of control | dose: 400.0 mg/kg/injection, schedule: Q01DX001 (ip), vehicle: saline 95 % of control | dose: 400.0 mg/kg/injection, schedule: Q01DX009 (ip), vehicle: Klucel (hydroxypropylcellulose) (HPC) 96 % of control | dose: 400.0 mg/kg/injection, schedule: Q04DX003 (ip), vehicle: Klucel (hydroxypropylcellulose) (HPC) 98 % of control

CCOc1ccc(/C=N/NC(=O)C(O)c2ccccc2)cc1OC (configuration not stated)
inactive: dose: 100.0 mg/kg/injection, schedule: Q01DX009 (ip), vehicle: saline with Tween-80 97 % of control | dose: 200.0 mg/kg/injection, schedule: Q01DX009 (ip), vehicle: saline with Tween-80 92 % of control | dose: 400.0 mg/kg/injection, schedule: Q01DX009 (ip), vehicle: saline with Tween-80 90 % of control

Cc1ccc(N2C(=O)CSC2=S)cc1F
inactive: [4] 96 % of control | [5] 104 % of control | dose: 400.0 mg/kg/injection, schedule: Q04DX002 (ip), vehicle: Klucel (hydroxypropylcellulose) (HPC) 101 % of control

COc1cc2cc3c4cc(OC)c(OC)cc4cc[n+]3c(/C=C/c3ccc(Cl)cc3)c2cc1OC
inactive: dose: 100.0 mg/kg/injection, schedule: Q01DX001 (ip), vehicle: carboxymethylcellulose (CMC) 93 % of control and 99 % of control | dose: 100.0 mg/kg/injection, schedule: Q04DX002 (ip), vehicle: carboxymethylcellulose (CMC) 102 % of control and 103 % of control | dose: 100.0 mg/kg/injection, schedule: Q04DX003 (ip), vehicle: carboxymethylcellulose (CMC) 100 % of control and 103 % of control | dose: 200.0 mg/kg/injection, schedule: Q01DX001 (ip), vehicle: carboxymethylcellulose (CMC) 99 % of control and 114 % of control | dose: 200.0 mg/kg/injection, schedule: Q04DX002 (ip), vehicle: carboxymethylcellulose (CMC) 94 % of control and 105 % of control | dose: 200.0 mg/kg/injection, schedule: Q04DX003 (ip), vehicle: carboxymethylcellulose (CMC) 95 % of control and 117 % of control | dose: 400.0 mg/kg/injection, schedule: Q01DX001 (ip), vehicle: carboxymethylcellulose (CMC) 94 % of control and 111 % of control | dose: 400.0 mg/kg/injection, schedule: Q04DX002 (ip), vehicle: carboxymethylcellulose (CMC) 102 % of control and 113 % of control | dose: 400.0 mg/kg/injection, schedule: Q04DX003 (ip), vehicle: carboxymethylcellulose (CMC) 100 % of control and 92 % of control

CC(=O)OCCC[P+](c1ccccc1)(c1ccccc1)c1ccccc1
inactive: [2] 102 % of control | [3] 110 % of control

Oc1c(-c2ccccn2)cccc1C(F)(F)F
inactive: dose: 12.5 mg/kg/injection, schedule: Q04DX003 (ip), vehicle: Klucel (hydroxypropylcellulose) (HPC) 98 % of control | dose: 25.0 mg/kg/injection, schedule: Q04DX003 (ip), vehicle: Klucel (hydroxypropylcellulose) (HPC) 102 % of control | dose: 50.0 mg/kg/injection, schedule: Q04DX003 (ip), vehicle: Klucel (hydroxypropylcellulose) (HPC) 100 % of control

Cc1ccc(S(=O)(=O)O/C=C2\CCOC2=O)cc1
inactive: [4] 105 % of control | [5] 112 % of control

O=C(CCCCCCCCC(=O)OO)OO (tested in a mixture with another compound)
inactive: dose: 100.0 mg/kg/injection, schedule: Q04DX003 (ip), vehicle: saline with Tween-80 98 % of control | dose: 200.0 mg/kg/injection, schedule: Q04DX003 (ip), vehicle: saline with Tween-80 92 % of control | dose: 400.0 mg/kg/injection, schedule: Q04DX003 (ip), vehicle: saline with Tween-80 90 % of control

O=S1C=C(c2ccc(Cl)cc2)OC1 (configuration not stated)
inactive: dose: 12.0 mg/kg/injection, schedule: Q01DX001 (ip), vehicle: saline 102 % of control | dose: 25.0 mg/kg/injection, schedule: Q01DX001 (ip), vehicle: saline 107 % of control | [1] 107 % of control

OCc1ccc(CO)cc1
inactive: dose: 100.0 mg/kg/injection, schedule: Q01DX009 (ip), vehicle: saline sonified 100 % of control | dose: 200.0 mg/kg/injection, schedule: Q01DX009 (ip), vehicle: saline sonified 94 % of control | dose: 400.0 mg/kg/injection, schedule: Q01DX009 (ip), vehicle: saline sonified 103 % of control

CCCCCCCCCCCCCCCC(=O)N(CCCN)CCCCCCCCCN(CCCN)C(=O)CCCCCCCCCCCCCCC
inactive: dose: 25.0 mg/kg/injection, schedule: Q01DX009 (ip), vehicle: saline 96 % of control | dose: 50.0 mg/kg/injection, schedule: Q01DX009 (ip), vehicle: saline 97 % of control | dose: 100.0 mg/kg/injection, schedule: Q04DX003 (ip), vehicle: saline 91 % of control

[Cl][Cd][Cl].c1ccc(N=P(c2ccccc2)(c2ccccc2)c2ccccc2)cc1
inactive: dose: 9.38 mg/kg/injection, schedule: Q01DX001 (ip), vehicle: other 105 % of control

CC1(C)OC2OC(/C=C\C=O)C3OC(C)(C)OC3C2O1 (configuration not stated)
inactive: dose: 100.0 mg/kg/injection, schedule: Q04DX003 (ip), vehicle: acetone 100 % of control | dose: 200.0 mg/kg/injection, schedule: Q04DX003 (ip), vehicle: acetone 104 % of control
